The values below come from the kinase profiling compilation of Christmann-Franck et al. (2016).

Assay in all cases: KINOMEscan competition binding
Conditions in all cases: compound 10.0 µM

For experiment [1], the target named is CDKL3 (human) (UniProt Q8IVW4).
The target in experiment [2] is DCLK2 (human) (UniProt Q8N568).
The target in experiment [3] is GRK1 (human) (UniProt Q15835).
For experiment [4], the target named is HIPK3 (human) (UniProt Q9H422).
Experiment [5] deals with MAP3K13 (human) (UniProt O43283).
Chain of MAP3K13 (human) (O43283 whole entry, looked up): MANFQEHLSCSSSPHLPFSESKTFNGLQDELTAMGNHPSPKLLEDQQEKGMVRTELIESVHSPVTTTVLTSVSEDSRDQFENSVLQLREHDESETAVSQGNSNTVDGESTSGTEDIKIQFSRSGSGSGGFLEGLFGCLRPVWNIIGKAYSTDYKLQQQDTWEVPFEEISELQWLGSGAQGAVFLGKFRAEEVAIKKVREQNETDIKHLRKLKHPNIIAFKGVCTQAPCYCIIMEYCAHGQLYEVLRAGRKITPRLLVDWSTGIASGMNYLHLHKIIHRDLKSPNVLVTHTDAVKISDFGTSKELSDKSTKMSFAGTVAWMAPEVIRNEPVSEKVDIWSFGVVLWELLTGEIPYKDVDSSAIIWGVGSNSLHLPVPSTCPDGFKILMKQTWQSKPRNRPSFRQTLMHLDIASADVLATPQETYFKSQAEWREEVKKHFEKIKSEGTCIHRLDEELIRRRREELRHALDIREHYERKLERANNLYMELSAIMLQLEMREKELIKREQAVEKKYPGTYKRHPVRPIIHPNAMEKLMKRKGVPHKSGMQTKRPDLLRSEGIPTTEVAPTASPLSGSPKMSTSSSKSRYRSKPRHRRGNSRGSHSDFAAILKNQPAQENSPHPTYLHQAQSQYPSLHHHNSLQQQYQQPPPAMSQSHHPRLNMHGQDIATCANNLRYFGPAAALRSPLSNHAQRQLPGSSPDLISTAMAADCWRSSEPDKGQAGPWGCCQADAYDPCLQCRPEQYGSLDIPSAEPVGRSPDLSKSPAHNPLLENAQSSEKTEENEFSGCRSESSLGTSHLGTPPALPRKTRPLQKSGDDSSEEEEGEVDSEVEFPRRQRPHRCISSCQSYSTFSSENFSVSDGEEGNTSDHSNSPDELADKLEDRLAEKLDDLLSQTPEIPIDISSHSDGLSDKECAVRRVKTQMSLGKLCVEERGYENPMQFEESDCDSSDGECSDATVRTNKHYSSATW
In experiment [6] the target is MARK3 (human) (UniProt P27448).
Chain of MARK3 (human) (P27448 whole entry, looked up): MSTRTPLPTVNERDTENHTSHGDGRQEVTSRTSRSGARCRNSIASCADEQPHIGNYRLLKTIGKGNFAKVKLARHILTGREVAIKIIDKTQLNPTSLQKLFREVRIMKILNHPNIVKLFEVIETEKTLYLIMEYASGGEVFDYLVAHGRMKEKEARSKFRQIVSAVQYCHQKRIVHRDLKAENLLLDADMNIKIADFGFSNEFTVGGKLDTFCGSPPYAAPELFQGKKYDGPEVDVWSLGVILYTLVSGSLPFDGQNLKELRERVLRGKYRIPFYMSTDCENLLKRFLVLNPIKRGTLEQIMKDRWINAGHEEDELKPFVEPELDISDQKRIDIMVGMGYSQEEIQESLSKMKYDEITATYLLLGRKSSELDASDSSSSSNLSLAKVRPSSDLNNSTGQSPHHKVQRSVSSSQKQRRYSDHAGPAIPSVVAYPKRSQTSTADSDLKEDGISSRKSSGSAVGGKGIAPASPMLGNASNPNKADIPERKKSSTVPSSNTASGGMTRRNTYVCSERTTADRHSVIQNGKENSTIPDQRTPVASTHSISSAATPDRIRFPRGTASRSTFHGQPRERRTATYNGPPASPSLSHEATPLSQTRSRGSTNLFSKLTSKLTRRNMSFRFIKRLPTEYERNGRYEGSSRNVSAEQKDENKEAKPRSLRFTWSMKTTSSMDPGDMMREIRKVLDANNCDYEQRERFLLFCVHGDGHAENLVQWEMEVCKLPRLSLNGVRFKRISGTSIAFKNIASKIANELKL
In experiment [7] the test system is MET (human), P08581 [M1250T].
The target of experiment [8] is PAK3 (human) (UniProt O75914).
Chain of PAK3 (human) (O75914 whole entry, looked up): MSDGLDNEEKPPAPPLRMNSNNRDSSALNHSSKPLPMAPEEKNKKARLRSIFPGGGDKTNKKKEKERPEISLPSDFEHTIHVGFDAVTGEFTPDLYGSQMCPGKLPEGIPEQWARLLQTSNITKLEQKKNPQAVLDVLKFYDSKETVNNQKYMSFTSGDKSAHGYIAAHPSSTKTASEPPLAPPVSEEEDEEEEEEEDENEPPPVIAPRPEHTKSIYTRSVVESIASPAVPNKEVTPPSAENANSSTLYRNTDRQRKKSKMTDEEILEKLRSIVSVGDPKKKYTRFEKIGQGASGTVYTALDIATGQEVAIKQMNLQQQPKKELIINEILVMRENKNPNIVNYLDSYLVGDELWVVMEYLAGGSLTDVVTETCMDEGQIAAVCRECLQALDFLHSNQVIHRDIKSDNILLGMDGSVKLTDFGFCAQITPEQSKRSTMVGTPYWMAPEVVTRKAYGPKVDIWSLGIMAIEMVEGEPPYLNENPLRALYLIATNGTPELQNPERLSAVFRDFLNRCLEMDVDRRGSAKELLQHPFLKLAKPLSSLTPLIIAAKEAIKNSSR
Experiment [9] relates to PIK3CA (human), P42336 [E545A].
In experiment [10] the target is PRKCI (human) (UniProt P41743).
For experiment [11], the target named is SGK110 (human) (UniProt P0C264).
Chain of SGK110 (human) (P0C264 whole entry, looked up): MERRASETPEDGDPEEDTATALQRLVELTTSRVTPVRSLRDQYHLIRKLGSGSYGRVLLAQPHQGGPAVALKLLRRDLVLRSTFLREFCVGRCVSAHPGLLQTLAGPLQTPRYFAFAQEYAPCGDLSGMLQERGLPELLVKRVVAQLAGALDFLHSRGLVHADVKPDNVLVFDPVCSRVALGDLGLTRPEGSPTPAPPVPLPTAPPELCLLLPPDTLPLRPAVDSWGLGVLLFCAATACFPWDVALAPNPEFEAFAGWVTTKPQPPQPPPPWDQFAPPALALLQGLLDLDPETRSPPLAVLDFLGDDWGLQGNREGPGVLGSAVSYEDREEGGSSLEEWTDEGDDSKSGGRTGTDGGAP
Experiment [12] addresses SNRK (human) (UniProt Q9NRH2).
Experiment [13] deals with TRPM6 (human) (UniProt Q9BX84).
Experiment [14] concerns the target BRAF (human) (UniProt P15056).
For experiment [15], the system named is BRAF (human), P15056 [V600E].
The subject of experiment [16] is ABL1 (human), P00519 [H396P].

Chain of CDKL3 (human) (Q8IVW4 whole entry, looked up): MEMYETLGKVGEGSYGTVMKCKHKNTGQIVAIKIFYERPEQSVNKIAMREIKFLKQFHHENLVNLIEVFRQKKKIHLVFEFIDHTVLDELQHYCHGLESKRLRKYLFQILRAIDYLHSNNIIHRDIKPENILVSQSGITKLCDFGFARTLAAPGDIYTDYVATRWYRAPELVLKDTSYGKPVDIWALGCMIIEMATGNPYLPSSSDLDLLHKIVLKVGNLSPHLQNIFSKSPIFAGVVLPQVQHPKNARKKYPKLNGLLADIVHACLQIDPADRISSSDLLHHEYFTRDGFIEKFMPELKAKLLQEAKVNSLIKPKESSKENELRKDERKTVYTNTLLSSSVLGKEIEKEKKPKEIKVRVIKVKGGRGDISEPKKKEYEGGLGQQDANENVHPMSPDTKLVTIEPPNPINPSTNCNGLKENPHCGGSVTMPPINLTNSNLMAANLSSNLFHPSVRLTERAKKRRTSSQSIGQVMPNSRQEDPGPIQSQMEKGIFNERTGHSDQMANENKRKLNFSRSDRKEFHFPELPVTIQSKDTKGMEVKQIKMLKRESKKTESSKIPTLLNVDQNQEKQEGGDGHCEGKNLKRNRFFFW
Chain of GRK1 (human) (Q15835 whole entry, looked up): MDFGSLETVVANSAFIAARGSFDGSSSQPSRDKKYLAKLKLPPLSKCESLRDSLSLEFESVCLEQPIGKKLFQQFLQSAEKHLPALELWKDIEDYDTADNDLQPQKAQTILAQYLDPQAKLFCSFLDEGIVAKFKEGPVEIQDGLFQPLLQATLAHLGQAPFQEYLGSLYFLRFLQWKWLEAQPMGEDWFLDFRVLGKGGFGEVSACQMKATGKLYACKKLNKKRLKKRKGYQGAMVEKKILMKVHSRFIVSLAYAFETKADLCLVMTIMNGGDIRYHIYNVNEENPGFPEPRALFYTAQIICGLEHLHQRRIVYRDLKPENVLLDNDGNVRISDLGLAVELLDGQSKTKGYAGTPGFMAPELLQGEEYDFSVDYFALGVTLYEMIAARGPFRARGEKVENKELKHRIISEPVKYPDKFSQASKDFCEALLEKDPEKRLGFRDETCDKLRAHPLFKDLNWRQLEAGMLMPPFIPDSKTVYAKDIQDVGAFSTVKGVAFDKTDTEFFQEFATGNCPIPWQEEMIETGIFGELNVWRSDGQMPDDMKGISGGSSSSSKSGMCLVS
Chain of HIPK3 (human) (Q9H422 whole entry, looked up): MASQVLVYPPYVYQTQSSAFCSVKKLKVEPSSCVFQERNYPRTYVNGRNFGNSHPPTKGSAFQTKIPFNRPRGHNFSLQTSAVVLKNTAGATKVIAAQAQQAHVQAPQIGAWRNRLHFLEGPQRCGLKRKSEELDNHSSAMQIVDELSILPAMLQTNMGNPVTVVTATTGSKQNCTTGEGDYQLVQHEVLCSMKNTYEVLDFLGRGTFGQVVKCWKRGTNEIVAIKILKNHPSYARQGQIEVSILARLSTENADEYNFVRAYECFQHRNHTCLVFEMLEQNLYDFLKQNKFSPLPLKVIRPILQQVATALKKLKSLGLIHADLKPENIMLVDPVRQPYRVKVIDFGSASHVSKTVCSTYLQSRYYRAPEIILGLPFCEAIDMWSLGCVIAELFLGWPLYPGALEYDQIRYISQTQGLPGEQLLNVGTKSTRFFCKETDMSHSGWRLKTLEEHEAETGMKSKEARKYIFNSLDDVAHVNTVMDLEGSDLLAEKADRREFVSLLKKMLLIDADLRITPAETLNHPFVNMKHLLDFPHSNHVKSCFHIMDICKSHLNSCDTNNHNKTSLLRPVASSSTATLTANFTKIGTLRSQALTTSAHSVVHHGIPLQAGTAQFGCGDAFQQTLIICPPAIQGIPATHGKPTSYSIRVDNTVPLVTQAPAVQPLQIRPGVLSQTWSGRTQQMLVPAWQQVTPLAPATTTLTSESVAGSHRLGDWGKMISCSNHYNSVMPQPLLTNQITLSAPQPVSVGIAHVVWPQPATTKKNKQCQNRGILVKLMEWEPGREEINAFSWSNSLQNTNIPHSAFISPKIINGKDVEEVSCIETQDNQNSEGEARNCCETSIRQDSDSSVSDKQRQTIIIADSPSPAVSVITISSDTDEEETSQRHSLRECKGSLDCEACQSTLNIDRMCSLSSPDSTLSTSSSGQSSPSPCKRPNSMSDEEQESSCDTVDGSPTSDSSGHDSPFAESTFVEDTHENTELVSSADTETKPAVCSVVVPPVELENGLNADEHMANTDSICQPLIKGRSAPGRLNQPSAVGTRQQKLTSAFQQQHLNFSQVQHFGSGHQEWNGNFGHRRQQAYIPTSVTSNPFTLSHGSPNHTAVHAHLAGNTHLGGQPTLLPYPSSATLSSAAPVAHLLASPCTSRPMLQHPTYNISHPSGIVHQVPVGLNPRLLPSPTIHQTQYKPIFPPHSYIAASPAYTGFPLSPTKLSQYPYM

`CCN1CCN(Cc2ccc(NC(=O)c3ccc(C)c(/C=C/c4cnc(Nc5cc(N6CCNCC6)nc(C)n5)cn4)c3)cc2C(F)(F)F)CC1`: the kinase still bound, per cent of control is 0.55% in experiment [1]; 100% in experiment [2]; 100% in experiment [3]; 48% in experiment [4]; 6.6% in [5]; 58% in experiment [6]. The kinase still bound, per cent of control in experiment [7] was 89%; in experiment [8] it was 14%; in experiment [9] it was 100%; in [10], 74%; in [11], 100%; in experiment [12], 84%. Further, the kinase still bound, per cent of control in experiment [13] is 67%.
Consider `COc1cc(N2CCC(N3CCN(C)CC3)CC2)ccc1Nc1ncc(Cl)c(Nc2ccccc2S(=O)(=O)C(C)C)n1`, for which the kinase still bound, per cent of control in [14] and in [15] was 40% throughout.
In experiment [16], `CCN1CCN(Cc2ccc(NC(=O)c3ccc(C)c(Oc4ccnc5[nH]ccc45)c3)cc2C(F)(F)F)CC1` gave a kinase still bound, per cent of control of 0.7%.
Turning to `CCOc1cc(N2CCC(N3CCCCC3)CC2)ccc1Nc1nc(Nc2ccccc2S(=O)(=O)C(C)C)c2cn[nH]c2n1`, the kinase still bound, per cent of control came out at 100% in experiment [1]; 19% in experiment [2]; 98% in experiment [3]; 79% in experiment [4]; 100% in [5]; 100% in [6]. In addition, the kinase still bound, per cent of control was 100% in experiment [7]; 59% in experiment [8]; 100% in experiment [9]; 100% in experiment [10]; 100% in [11]; 40% in [12]. In [13], this molecule showed a kinase still bound, per cent of control of 100%.
